# Data as given in patent US7754272B2, “Local drug delivery” (Biocompatibles IK Limited, priority 1999, dated 2010).
# Legend:
# [1] = Vitamin B12 loading of MBA-crosslinked HEMA-PC:LM polymers; assay type: physicochemical
# Procedure: Polymers based on HEMA-PC:LM 1:2 with varying degrees of MBA crosslinker were tested to determine the effect of crosslinker on release of vitamin B12. The polymers were also tested for their water content when swollen to equilibrium in water at 37° C. The loading levels of vitamin B12 are recorded in table 2 below.
# Also recorded in table 2 are similar results for MBA crosslinked copolymers based upon 1:1 copolymers of HEMA-PC and LM.
# [2] = Drug loading of HEMA-PC:HEMA:MMA:MBA crosslinked membrane; assay type: physicochemical; details: HEMA-PC:HEMA:MMA:MBA copolymer swollen in aqueous drug solution, room temperature, over night
# Excerpt: The polymers including MBA were polymerised in situ to form crosslinked membranes. […] The crosslinked polymers were used to form “infinite slabs” type membranes, to simulate the coating on a stent. […] The loaded levels were established to be the following: […]
# [3] = Dexamethasone phosphate and dexamethasone loading and elution, pre-coated stents; details: for loading per stent: 20 C., 30 minutes
# [4] = cited from earlier work
# [5] = Aspirin loading and release, pre-coated stents; assay type: physicochemical; details: for aspirin loaded: 15 mm stent, one hour, room temperature
# Excerpt: Aspirin has anti platelet activity, which may be useful delivered locally from a stent. […] The solutions were used to load 15 mm stents having coatings produced according to Reference Example 1 (interior wall coating thickness around 350 nanometers, exterior wall coating thickness around 1400 nanometers). The stents were immersed in the aspirin solutions at room temperature for a period of one hour. The stent was removed from the solution, excess solution removed by gentle dabbing with absorbent tissue. Aspirin loading levels were determined by extracting the aspirin into 3 ml ethanol.
# [6] = Ex vivo human saphenous vein model, angiopeptin loaded stents
# Procedure: More extensive work was conducted on angiopeptin loaded stents, to mimic the in vivo environment. The further examples use an ex vivo human saphenous vein model (as described by Armstrong, J. et al 1998. A purfused organ culture model to investigate drug release from coronary stents, Northern General Hospital, Sheffield (in press). The stents (produced as in Reference Example 1 below) were loaded using aqueous solutions of angiopeptin labeled with ^125I by the chloramine T method, into which the stent was dipped for half an hour at 37 C. The loaded stents were then allowed to air dry for one hour. Stents were in inserted into the vein, expanded by balloon catheter, washed in 10 ml culture medium for 10 s then placed in the purpose-built organ culture chamber bathed in 30 ml culture medium. The chamber was then connected to a circuit and 100 ml culture medium (HEPES-buffered RPMI 1640 culture medium (LIFE) supplemented with penicillin ([…]) streptomycin (100 units/ml) and glutamine (2 mM)) at 70 ml/min, then removed after 1 hour or 24 hours. The stent was subsequently examined to determine the proportion of angiopeptin which has eluted, whilst the vessel immediately surrounding the stent was investigated to determine the proportion of eluted drug found in the vessel. The culture medium was also analysed as was the explanted stent for radio activity.
# [7] = In vivo porcine coronary artery model, angiopeptin loaded stents
# Procedure: Further work was conducted to investigate the ability of the angiopeptin loaded stents to deliver angiopeptin tissue in an in vivo, in a porcine coronary artery model. […] The levels of angiopeptin remaining in the arterial wall immediately surrounding the stent was determined as well as the level recovered in blood and urine.
# [8] = Taxol loading of cross-linked polymer discs; assay type: physicochemical
# Procedure: Polymers of the same compositions as used in example 8 are tested for taxol (paclitaxel) loading. Twenty discs were cut out of each membrane of polymer, placed on pieces of PTFE in petri dishes and dried in an oven at 60° C. for an hour. When cool the discs were placed into a solution of taxol and allowed to swell in a water bath at 37° C. for half an hour. The taxol solution was decanted off, the discs labelled and placed on the PTFE and allowed to air dry. The discs were then tested for determining total loadings.
# [9] = Roxithromycin loading and release, pre-coated stents; assay type: physicochemical
# Procedure: Stents coated with polymer according to Reference Example 1 (15 mm) were loaded with roxithromycin from 5 g/l and 10 g/l solutions in ethanol or in ethanol:water 50:50 mixture. The level of loading of drug onto the stent was determined by elution from the stent into ethanol. […] The average loading for the 5 g/l solution was 58 μg per stent, whilst the 10 g/l solutions lead to loadings of around 70 μg for both solvent systems.
# Stents loaded from the 10 g/l ethanolic solutions were subsequently contacted with phosphate buffered saline under gentle agitation and the release rate determined. […] The test was continued up to 48 hours, after which time 5 to 10% of roxithromycin remains in the coating.
compound,measurement,setting,value
vitamin B12,Vitamin B12 Load (mg/g polymer),"[1]; HEMA-PC:LM 1:1, crosslinker 0.28 mole %",26.13 mg/g polymer
same,Vitamin B12 Load (mg/g polymer),"[1]; HEMA-PC:LM 1:1, crosslinker 0.5 mole %",19.83 mg/g polymer
same,Vitamin B12 Load (mg/g polymer),"[1]; HEMA-PC:LM 1:1, crosslinker 1 mole %",11.89 mg/g polymer
same,Vitamin B12 Load (mg/g polymer),"[1]; HEMA-PC:LM 1:1, crosslinker 2 mole %",8.44 mg/g polymer
same,Vitamin B12 Load (mg/g polymer),"[1]; HEMA-PC:LM 1:1, crosslinker 5 mole %",4.94 mg/g polymer
same,Vitamin B12 Load (mg/g polymer),"[1]; HEMA-PC:LM 1:2, crosslinker 0.28 mole %",11.73 mg/g polymer
same,Vitamin B12 Load (mg/g polymer),"[1]; HEMA-PC:LM 1:2, crosslinker 0.5 mole %",10.68 mg/g polymer
same,Vitamin B12 Load (mg/g polymer),"[1]; HEMA-PC:LM 1:2, crosslinker 1 mole %",11.4 mg/g polymer
same,Vitamin B12 Load (mg/g polymer),"[1]; HEMA-PC:LM 1:2, crosslinker 2 mole %",4.66 mg/g polymer
same,Vitamin B12 Load (mg/g polymer),"[1]; HEMA-PC:LM 1:2, crosslinker 5 mole %",1.96 mg/g polymer
same,Vitamin B12 Load (mg/g polymer),"[1]; HEMA-PC:LM 1:2, crosslinker 10 mole %",0 mg/g polymer
same,Loading (mg/g polymer),[2],40 mg/g polymer
"C[C@@H]1C[C@H]2[C@@H]3CCC4=CC(=O)C=C[C@]4(C)[C@@]3(F)[C@@H](O)C[C@]2(C)[C@@]1(O)C(=O)COP(=O)(O)O [dexamethasone phosphate, Dexamethasone phosphate]",loading per stent,[3]; 1.0 g/l in water,9 μg per stent
same,loading per stent,[3]; 2.0 g/l in water,14 µg
same,loading per stent,[3]; 5.0 g/l in water,20 µg
same,time by which effectively all the drug is released,[3]; elution test,≤ 1 h
CO[C@H]1C[C@@H]2CC[C@@H](C)[C@@](O)(O2)C(=O)C(=O)N2CCCC[C@H]2C(=O)O[C@H]([C@H](C)C[C@@H]2CC[C@@H](O)[C@H](OC)C2)CC(=O)[C@H](C)/C=C(\C)[C@@H](O)[C@@H](OC)C(=O)[C@H](C)C[C@H](C)/C=C/C=C/C=C/1C [Rapamycin],solubility in water,[4],5 µg/mL
rhodamine,Loading (mg/g polymer),[2],85 mg/g polymer
"CC(=O)Oc1ccccc1C(=O)O [aspirin, Aspirin]",solubility in water,[4],only partially soluble in water
same,aspirin loaded,[5]; 10 g/l in ethanol,around 10 μg
same,aspirin loaded,[5]; 40 g/l in ethanol,around 40 μg
same,share of drug eluted,"[5]; into phosphate buffered saline, after about 1 hour",around 90%
"C[C@@H]1C[C@H]2[C@@H]3CCC4=CC(=O)C=C[C@]4(C)[C@@]3(F)[C@@H](O)C[C@]2(C)[C@@]1(O)C(=O)CO [dexamethasone, Dexamethasone]",solubility in water,[4],less water soluble than dexamethasone phosphate
CC(C)[C@@H]1NC(=O)[C@H](CCCCN)NC(=O)[C@@H](Cc2c[nH]c3ccccc23)NC(=O)[C@H](Cc2ccc(O)cc2)NC(=O)[C@@H](NC(=O)[C@H](N)Cc2ccc3ccccc3c2)CSSC[C@@H](C(=O)N[C@H](C(N)=O)[C@@H](C)O)NC1=O [angiopeptin],share of angiopeptin eluted from stent,[6]; after 1 hour,93%
same,share of eluted drug in the surrounding vessel,[6]; after 1 hour,13.9%
same,share of angiopeptin eluted from stent,[6]; after 24 hours,97%
same,share of eluted drug remaining in the vessel,[6]; after 24 hours,7.4%
same,share of detected angiopeptin located in tissue other than the heart,[7]; 1 to 28 days,less than 1%
same,angiopeptin in blood,[7]; after 5 min,0.08 µg/mL
same,angiopeptin in urine,[7]; after 1 hour,0.29 µg/mL
same,share of angiopeptin remaining on the stent,[7]; after 1 hour,9%
same,angiopeptin in blood,[7]; after 24 hours,around 0.01 μg/ml
same,share of angiopeptin remaining on the stent,[7]; after 24 hours,4%
same,share of angiopeptin remaining on the stent,[7]; after 7 days,1.5%
same,angiopeptin in urine,[7]; after 28 days,0.01 µg/mL
same,angiopeptin in blood compared with 5 min,[7]; after one hour,about the same
same,level of angiopeptin in tissue,"[7]; arterial wall surrounding the stent, after 24 hours",around 400 pg/ml
same,angiopeptin in blood,[7]; at 7 to 28 days,No angiopeptin could be found
same,share of released angiopeptin localised in the left anterior descending coronary artery,[7]; at 1 hour,84%
same,level of angiopeptin in tissue,[7]; at 7 days,around 360 pg/ml
same,level of angiopeptin in tissue,[7]; at 28 days,around 200 pg/ml
"CC(=O)O[C@H]1C(=O)[C@@]2(C)[C@H]([C@H](OC(=O)c3ccccc3)[C@]3(O)C[C@H](OC(=O)[C@H](O)[C@@H](NC(=O)c4ccccc4)c4ccccc4)C(C)=C1C3(C)C)[C@]1(OC(C)=O)CO[C@@H]1C[C@@H]2O [taxol, paclitaxel]",Total Loading (μg per disc),"[8]; Series 1, 1st polymer (Table 4 HEMA-PC:LM:Hpm:TMSPM 13:39:15:5)",35.2 μg per disc
same,Total Loading (μg per disc),"[8]; Series 1, 2nd polymer (Table 4 53:39:15:5)",80 μg per disc
same,Total Loading (μg per disc),"[8]; Series 1, 3rd polymer (Table 4 13:55:15:5)",15 μg per disc
same,Total Loading (μg per disc),"[8]; Series 1, 4th polymer (Table 4 33:55:15:5)",18.1 μg per disc
same,Total Loading (μg per disc),"[8]; Series 2, 1st polymer (Table 4 13:39:15:9)",51.7 μg per disc
same,Total Loading (μg per disc),"[8]; Series 2, 2nd polymer (Table 4 33:39:15:9)",57 μg per disc
same,Total Loading (μg per disc),"[8]; Series 2, 3rd polymer (Table 4 13:55:15:9)",18.6 μg per disc
same,Total Loading (μg per disc),"[8]; Series 2, 4th polymer (Table 4 33:55:15:9)",10 μg per disc
same,Total Loading (μg per disc),"[8]; Series 3, 1st polymer (Table 4 13:39:35:5)",55.2 μg per disc
same,Total Loading (μg per disc),"[8]; Series 3, 2nd polymer (Table 4 33:39:35:5)",11.2 μg per disc
same,Total Loading (μg per disc),"[8]; Series 3, 3rd polymer (Table 4 13:55:35:5)",5.4 μg per disc
same,Total Loading (μg per disc),"[8]; Series 3, 4th polymer (Table 4 33:55:35:5)",25.3 μg per disc
same,Total Loading (μg per disc),"[8]; Series 4, 1st polymer (Table 4 13:39:35:9)",23.8 μg per disc
same,Total Loading (μg per disc),"[8]; Series 4, 2nd polymer (Table 4 33:39:35:9)",60.5 μg per disc
same,Total Loading (μg per disc),"[8]; Series 4, 3rd polymer (Table 4 13:55:35:9)",24.3 μg per disc
same,Total Loading (μg per disc),"[8]; Series 4, 4th polymer (Table 4 33:55:35:9)",64 μg per disc
"CC[C@H]1OC(=O)[C@H](C)[C@@H](O[C@H]2C[C@@](C)(OC)[C@@H](O)[C@H](C)O2)[C@H](C)[C@@H](O[C@@H]2O[C@H](C)C[C@H](N(C)C)[C@H]2O)[C@](C)(O)C[C@@H](C)/C(=N\OCOCCOC)[C@H](C)[C@@H](O)[C@]1(C)O [roxithromycin, Roxithromycin]",solubility in water,[4],substantially insoluble in water
same,average loading,"[9]; 15 mm stent, 5 g/l solution",58 μg per stent
same,loading,"[9]; 15 mm stent, 10 g/l solutions, ethanol and ethanol:water 50:50",around 70 μg
same,share of compound released,"[9]; PBS, gentle agitation, after 24 hours, loaded from 10 g/l ethanolic solution",around half
